Experimental data: PubChem BioAssay AID588498 (Molecular Libraries Program, Specialized Chemistry Center, …, 2011)
Active and inactive are the calls of the source.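 How the source made its calls: active means compounds that block purified firefly luciferase enzyme with half-maximal potency below 20 µM; inactive means the rest.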

target: Luciferin 4-monooxygenase (Photinus pyralis) (UniProt P08659); experiment: firefly luciferase inhibitors or activators, profiling panel, counter-screen for EBNA-1 inhibitor project, biochemical, qHTS, purified enzyme, Km substrates, luminescence (AID 588498); conditions: purified FLuc
Sequence (P08659 whole entry, looked up): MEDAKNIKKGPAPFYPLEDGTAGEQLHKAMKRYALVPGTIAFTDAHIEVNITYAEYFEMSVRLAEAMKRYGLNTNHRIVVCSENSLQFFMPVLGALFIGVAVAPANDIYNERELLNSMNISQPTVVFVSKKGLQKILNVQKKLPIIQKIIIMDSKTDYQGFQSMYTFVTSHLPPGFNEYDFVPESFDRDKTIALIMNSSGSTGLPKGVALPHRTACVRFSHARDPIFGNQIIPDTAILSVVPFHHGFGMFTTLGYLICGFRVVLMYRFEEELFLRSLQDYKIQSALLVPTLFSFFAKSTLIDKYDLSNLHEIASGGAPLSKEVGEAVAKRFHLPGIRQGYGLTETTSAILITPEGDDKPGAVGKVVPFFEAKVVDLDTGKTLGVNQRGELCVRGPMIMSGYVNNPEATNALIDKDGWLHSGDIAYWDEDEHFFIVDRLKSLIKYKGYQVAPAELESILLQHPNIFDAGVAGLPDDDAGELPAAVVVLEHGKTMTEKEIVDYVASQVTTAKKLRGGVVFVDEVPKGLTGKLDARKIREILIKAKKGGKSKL

SMILES	AC50
Cc1cccc(-n2nnnc2SCC(=O)c2cc(C)n(CC3CCCO3)c2C)c1 (centres undefined)	18.3 µM
Cc1ccccc1-n1nnnc1SCC(=O)c1cc(C)n(CC2CCCO2)c1C (centres undefined)	2.91 µM
Nc1c(C(=O)Nc2ccc3c(c2)OCCO3)nnn1Cc1cccc(Cl)c1	3.26 µM
Nc1c(C(=O)Nc2cccc(C(F)(F)F)c2)nnn1Cc1cccc(Cl)c1	> 30 µM (inactive)
Cc1cc(C(=O)CSc2nnnn2-c2ccccc2)c(C)n1CC1CCCO1 (centres undefined)	2.06 µM
COc1ccc(Cn2nnc(C(=O)Nc3ccc4c(c3)OCCO4)c2N)cc1	2.91 µM
Cc1ccc(-n2nnnc2SCC(=O)c2cc(C)n(CC3CCCO3)c2C)cc1 (centres undefined)	6.51 µM
Nc1c(C(=O)Nc2ccc3c(c2)OCCO3)nnn1Cc1cccc(C(F)(F)F)c1	20.6 µM
Cc1ccccc1NC(=O)c1nnn(Cc2cccc(Cl)c2)c1N	> 30 µM (inactive)
COc1cccc(Cn2nnc(C(=O)Nc3ccc4c(c3)OCCO4)c2N)c1	4.11 µM
COc1ccc2nc(NC(=O)c3ccc(C)c(C)c3)sc2c1	0.651 µM
COCCn1c(C)cc(C(=O)CSc2nnnn2-c2ccccc2)c1C	1.63 µM

Next, values leading:

AC50	SMILES
2.91 µM	Cc1cccc(C(=O)Nc2nc3ccc(S(C)(=O)=O)cc3s2)c1
6.51 µM	Cc1ccccc1C(=O)Nc1nc2ccc(S(C)(=O)=O)cc2s1
5.8 µM	Cc1ccc(C(=O)Nc2nc3ccc(S(C)(=O)=O)cc3s2)cc1C
2.59 µM	COc1ccc(C(=O)Nc2nc3ccc(S(C)(=O)=O)cc3s2)cc1
0.366 µM	CS(=O)(=O)c1ccc2nc(NC(=O)c3cccc(F)c3)sc2c1
3.26 µM	CS(=O)(=O)c1ccc2nc(NC(=O)c3ccccc3Cl)sc2c1
1.83 µM	Cc1ccc(C(=O)Nc2nc3ccc(S(C)(=O)=O)cc3s2)cc1
